The values that follow come from patent US8969554B2, “6-acyl-1,2,4-triazine-3,5-dione derivative and herbicides” (Kumiai Chemical Industry Co., Ltd., priority 2010, dated 2015).

What all share (type): in vivo
One assay relates to foxtail. The experiment in a line: Herbicidal activity by field soil treatment (Test example 2). The conditions noted are these: 1000 g effective component per hectare, day 21 after the treatment. The method, then:
[table] Test for Determining Herbicidal Activity by Field Soil Treatment A 80 cm^2 wide plastic pot was filled with a field soil and seeds of each of Echinochloa crus-galli, foxtail, Indian millet, and A. retroflexus were sowed and then covered with soil. The wettable powder produced with reference to the Formulation example 1 was diluted water, and applied on the soil surface by using a small sprayer in an amount of 1000 liters per hectare so that the effective component is 1000 g per hectare. After that, the plants were cultivated in a greenhouse, and on day 21 after the treatment, evaluation was made by the criteria described in Table 72 for determining the herbicidal effects.

Assay [1] concerns Indian millet. Description: Herbicidal activity by field foliage treatment (Test example 3). Details: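 index 0 to 10 in 10% steps of herbicidal effect with 10 meaning complete death and 0 below 10%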. The settings on record: 1000 g effective component per hectare, day 14 after the treatment. Summed up:
(§1)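 Post-emergence foliar spray, 2-week-old greenhouse seedlings in field soil; wettable powder in water, 1000 g a.i./ha in 1000 L/ha. Greenhouse hold, visual herbicidal rating at 14 d.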

Assay [2] deals with A. retroflexus. Described as above. Details: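 index 0 to 10 in 10% steps of herbicidal effect with 10 meaning complete death and 0 below 10%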. The settings on record: 1000 g effective component per hectare, day 14 after the treatment. Summed up:
as §1

Assay [3] has as its system Echinochloa crus-galli. The description is as above. More on the design: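 index 0 to 10 in 10% steps of herbicidal effect with 10 meaning complete death and 0 below 10%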. The settings on record: 1000 g effective component per hectare, day 14 after the treatment. Summed up:
(§2)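 Herbicidal effect was rated on day 14 following a foliar spray of 1000 g active ingredient per hectare, applied as water-diluted wettable powder at 1000 L/ha. Plants had been raised for 2 weeks in field soil under greenhouse conditions before spraying.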

For assay [4], the system named is Indian millet. The experiment in a line: Herbicidal activity by field soil treatment (Test example 2). Details: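 index 0 to 10 in 10% steps of herbicidal effect with 10 meaning complete death and 0 below 10%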. The conditions noted are these: 1000 g effective component per hectare, day 21 after the treatment. Summed up: (§3)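 Soil-surface spray after sowing; wettable powder in water, 1000 g a.i./ha at 1000 L/ha. 80 cm^2 pots, field soil, greenhouse. Visual herbicidal score on day 21.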

Assay [5] concerns A. retroflexus. The assay is described as above. Details: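 index 0 to 10 in 10% steps of herbicidal effect with 10 meaning complete death and 0 below 10%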. The conditions noted are these: 1000 g effective component per hectare, day 21 after the treatment. Summed up: as §3
The subject of assay [6] is Echinochloa crus-galli. The description is as above. Details: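 index 0 to 10 in 10% steps of herbicidal effect with 10 meaning complete death and 0 below 10%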. The settings on record: 1000 g effective component per hectare, day 21 after the treatment. Summed up: as §3
The test system of another assay is Setaria viridis. The experiment in a line: Herbicidal activity by field foliage treatment (Test example 3). The conditions noted are these: 1000 g effective component per hectare, day 14 after the treatment. Summed up: as §2
For another assay, the system named is Echinochloa oryzicola. Description: Herbicidal activity by paddy field soil treatment (Test Example 1). More on the design: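 index 0 to 10 in 10% steps of herbicidal effect with 10 meaning complete death and 0 below 10%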. The conditions noted are these: 1000 g of effective component per hectare, evaluated on day 21 after the treatment, criteria of Table 72. Summed up: (§4)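 Pre-emergence paddy soil test: sown pots, 3 cm flood, water-surface application of diluted wettable powder 1 day after sowing, 1000 g a.i./ha; greenhouse; effect scored on graded scale at day 21.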

The next assay has as its system Scirpus juncoides Rocxb. The assay is described as above. More on the design: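 index 0 to 10 in 10% steps of herbicidal effect with 10 meaning complete death and 0 below 10%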. The settings on record: applied on water surface, 1000 g of effective component per hectare, day 21 after the treatment. Summed up: as §4
A further assay relates to Monochoria vaginalis. The assay is described as above. More on the design: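 index 0 to 10 in 10% steps of herbicidal effect with 10 meaning complete death and 0 below 10%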. The conditions noted are these: 1000 g of effective component per hectare, evaluated on day 21 after the treatment, criteria of Table 72. Summed up: as §4
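Throughout, for herbicidal effect index, Setaria viridis: index 0 to 10 in 10% steps of herbicidal effect with 10 meaning complete death and 0 below 10%.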

Regarding `Cn1nc(C(=O)C2=C(O)CCCC2=O)c(=O)n(C)c1=O` [I-1], the “herbicidal effect index, Setaria viridis” value turned out to be 7 in the assay with foxtail and 8 with Setaria viridis. The “herbicidal effect index, Abutilon theophrasti” value in the assay with Indian millet [1] and in the assay with Indian millet [4] was 9 throughout. Besides, the “herbicidal effect index, Amaranthus retroflexus” value in the assay with A. retroflexus [2] and with A. retroflexus [5] was 10 throughout. Also, the “herbicidal effect index, Echinochloa crus-galli” value with Echinochloa crus-galli [3] and in the assay on Echinochloa crus-galli [6] was 8 throughout. For the same compound, in the assay with Echinochloa oryzicola, the “Herbicidal effects index number, Echinochloa oryzicola” value worked out at 10. For the same compound, the “herbicidal effect index, S. juncoides Rocxb.” value with Scirpus juncoides Rocxb. stood at 10. Besides, in the assay with Monochoria vaginalis, the “Herbicidal effects index number, Monochoria vaginalis” value is recorded as 10.
With `CCn1c(=O)c(C(=O)C2=C(O)CCCC2=O)nn(C)c1=O` [I-2], the entries for the “herbicidal effect index, Setaria viridis” value in the assay with foxtail and in the assay with Setaria viridis were 7 and 10, respectively. In addition, the “herbicidal effect index, Abutilon theophrasti” value with Indian millet [1] and in the assay with Indian millet [4] was 10 throughout. The “herbicidal effect index, Amaranthus retroflexus” value in the assay with A. retroflexus [2] and in the assay with A. retroflexus [5] was 10 each time. Moreover, the entries for the “herbicidal effect index, Echinochloa crus-galli” value with Echinochloa crus-galli [3] and in the assay with Echinochloa crus-galli [6] were 9 and 10, respectively. Moreover, the “Herbicidal effects index number, Echinochloa oryzicola” value with Echinochloa oryzicola came to 10. In addition, in the assay on Scirpus juncoides Rocxb., the “herbicidal effect index, S. juncoides Rocxb.” value was 10. Also, the “Herbicidal effects index number, Monochoria vaginalis” value in the assay on Monochoria vaginalis was 10.
On to `CCCn1c(=O)c(C(=O)C2=C(O)CCCC2=O)nn(C)c1=O` [I-3], for which the figures for the “herbicidal effect index, Setaria viridis” value with foxtail and in the assay on Setaria viridis were 10 and 9, respectively. In addition, the “herbicidal effect index, Abutilon theophrasti” value in the assay on Indian millet [1] is 9; with Indian millet [4], 10. In addition, the “herbicidal effect index, Amaranthus retroflexus” value with A. retroflexus [2] is 9; in the assay on A. retroflexus [5], 10. For the same compound, the “herbicidal effect index, Echinochloa crus-galli” value is 9 in the assay with Echinochloa crus-galli [3] and 10 in the assay with Echinochloa crus-galli [6]. The “Herbicidal effects index number, Echinochloa oryzicola” value with Echinochloa oryzicola was 10. The “herbicidal effect index, S. juncoides Rocxb.” value with Scirpus juncoides Rocxb. amounted to 10. The “Herbicidal effects index number, Monochoria vaginalis” value in the assay with Monochoria vaginalis worked out at 10.
As to `CC(C)n1c(=O)c(C(=O)C2=C(O)CCCC2=O)nn(C)c1=O` [I-4], the “herbicidal effect index, Setaria viridis” value in the assay with foxtail and in the assay with Setaria viridis was 9 each time. For the same compound, the “herbicidal effect index, Abutilon theophrasti” value with Indian millet [1] and with Indian millet [4] was 9 in each case. The “herbicidal effect index, Amaranthus retroflexus” value in the assay on A. retroflexus [2] was determined as 9; in the assay on A. retroflexus [5], 10. Further, the “herbicidal effect index, Echinochloa crus-galli” value in the assay on Echinochloa crus-galli [3] and in the assay on Echinochloa crus-galli [6] was 9 throughout. The “Herbicidal effects index number, Echinochloa oryzicola” value in the assay with Echinochloa oryzicola was 9. In addition, the “herbicidal effect index, S. juncoides Rocxb.” value in the assay on Scirpus juncoides Rocxb. turned out to be 10. Moreover, the “Herbicidal effects index number, Monochoria vaginalis” value in the assay on Monochoria vaginalis is 9.
As for `CCCCn1c(=O)c(C(=O)C2=C(O)CCCC2=O)nn(C)c1=O` [I-5], the entries for the “herbicidal effect index, Setaria viridis” value with foxtail and in the assay with Setaria viridis were 7 and 10, respectively. Moreover, the “herbicidal effect index, Abutilon theophrasti” value with Indian millet [1] and in the assay with Indian millet [4] was 10 each time. Besides, the “herbicidal effect index, Amaranthus retroflexus” value with A. retroflexus [2] and in the assay with A. retroflexus [5] was 10 throughout. Moreover, the “herbicidal effect index, Echinochloa crus-galli” value with Echinochloa crus-galli [3] and in the assay on Echinochloa crus-galli [6] was 10 throughout. In the assay with Echinochloa oryzicola, the “Herbicidal effects index number, Echinochloa oryzicola” value was found to be 10. Further, the “herbicidal effect index, S. juncoides Rocxb.” value in the assay on Scirpus juncoides Rocxb. turned out to be 10. The “Herbicidal effects index number, Monochoria vaginalis” value in the assay on Monochoria vaginalis was 10.
Regarding `Cn1nc(C(=O)C2=C(O)CCCC2=O)c(=O)n(CC(F)(F)F)c1=O` [I-10], the “herbicidal effect index, Setaria viridis” value in the assay on foxtail was found to be 10; in the assay on Setaria viridis, 7. Besides, the “herbicidal effect index, Abutilon theophrasti” value with Indian millet [1] is recorded as 9; in the assay on Indian millet [4], 10. Besides, the “herbicidal effect index, Amaranthus retroflexus” value in the assay on A. retroflexus [2] and with A. retroflexus [5] was 10 throughout. The “herbicidal effect index, Echinochloa crus-galli” value in the assay on Echinochloa crus-galli [3] is given as 8; with Echinochloa crus-galli [6], 10. In the assay on Echinochloa oryzicola, the “Herbicidal effects index number, Echinochloa oryzicola” value was found to be 10. Also, the “herbicidal effect index, S. juncoides Rocxb.” value with Scirpus juncoides Rocxb. turned out to be 10. In addition, the “Herbicidal effects index number, Monochoria vaginalis” value in the assay with Monochoria vaginalis amounted to 10.
As to `Cn1nc(C(=O)C2=C(O)CCCC2=O)c(=O)n(C2CCCCC2)c1=O` [I-19], the “herbicidal effect index, Setaria viridis” value with foxtail amounted to 8; in the assay on Setaria viridis it was 10. For the same compound, the “herbicidal effect index, Abutilon theophrasti” value in the assay with Indian millet [1] stood at 10. For the same compound, the “herbicidal effect index, Amaranthus retroflexus” value in the assay with A. retroflexus [2] is on record as 10; in the assay on A. retroflexus [5], 8. Moreover, the “herbicidal effect index, Echinochloa crus-galli” value in the assay on Echinochloa crus-galli [3] came out at 10; with Echinochloa crus-galli [6], 8. Besides, in the assay on Echinochloa oryzicola, the “Herbicidal effects index number, Echinochloa oryzicola” value is 10. In the assay with Scirpus juncoides Rocxb., the “herbicidal effect index, S. juncoides Rocxb.” value is listed as 10. The “Herbicidal effects index number, Monochoria vaginalis” value in the assay with Monochoria vaginalis is on record as 10.
Consider `Cc1c(Cl)cccc1-n1c(=O)c(C(=O)C2=C(O)CCCC2=O)nn(C)c1=O` [I-136], for which the “herbicidal effect index, Setaria viridis” value in the assay with foxtail is recorded as 8; in the assay on Setaria viridis it was 9. The “herbicidal effect index, Abutilon theophrasti” value in the assay with Indian millet [1] and in the assay with Indian millet [4] was 9 each time. Moreover, the “herbicidal effect index, Amaranthus retroflexus” value came out at 10 in the assay with A. retroflexus [2] and 9 with A. retroflexus [5]. The “herbicidal effect index, Echinochloa crus-galli” value in the assay with Echinochloa crus-galli [3] came out at 9. The “Herbicidal effects index number, Echinochloa oryzicola” value with Echinochloa oryzicola worked out at 9. Moreover, in the assay with Scirpus juncoides Rocxb., the “herbicidal effect index, S. juncoides Rocxb.” value came out at 10. The “Herbicidal effects index number, Monochoria vaginalis” value in the assay on Monochoria vaginalis was 10.
As for `COc1cc(-n2c(=O)c(C(=O)C3=C(O)CCCC3=O)nn(C)c2=O)ccc1C` [I-155], the “herbicidal effect index, Setaria viridis” value in the assay on foxtail and with Setaria viridis was 7 in each case. Further, the “herbicidal effect index, Abutilon theophrasti” value in the assay with Indian millet [1] and in the assay with Indian millet [4] was 10 throughout. The “herbicidal effect index, Amaranthus retroflexus” value in the assay with A. retroflexus [2] and in the assay with A. retroflexus [5] was 10 throughout. Further, the “herbicidal effect index, Echinochloa crus-galli” value in the assay on Echinochloa crus-galli [3] was determined as 9. In addition, in the assay with Echinochloa oryzicola, the “Herbicidal effects index number, Echinochloa oryzicola” value is 10. Also, the “herbicidal effect index, S. juncoides Rocxb.” value with Scirpus juncoides Rocxb. came out at 10. Moreover, in the assay on Monochoria vaginalis, the “Herbicidal effects index number, Monochoria vaginalis” value worked out at 10.
Take `Cc1cncc(-n2c(=O)c(C(=O)C3=C(O)CCCC3=O)nn(C)c2=O)c1` [I-278]: the results for the “herbicidal effect index, Setaria viridis” value in the assay on foxtail and in the assay on Setaria viridis were 9 and 10, respectively. Further, the “herbicidal effect index, Abutilon theophrasti” value in the assay with Indian millet [1] was found to be 9. Besides, the “herbicidal effect index, Amaranthus retroflexus” value in the assay with A. retroflexus [2] and in the assay on A. retroflexus [5] was 10 each time. For the same compound, the “herbicidal effect index, Echinochloa crus-galli” value is on record as 10 with Echinochloa crus-galli [3] and 9 in the assay on Echinochloa crus-galli [6]. For the same compound, in the assay with Echinochloa oryzicola, the “Herbicidal effects index number, Echinochloa oryzicola” value was found to be 8. The “herbicidal effect index, S. juncoides Rocxb.” value with Scirpus juncoides Rocxb. came to 10. The “Herbicidal effects index number, Monochoria vaginalis” value in the assay on Monochoria vaginalis was 9.
For `COc1c(Cl)cc(-n2c(=O)c(C(=O)C3=C(O)CCCC3=O)nn(C)c2=O)cc1Cl` [I-299], the “herbicidal effect index, Setaria viridis” value with foxtail stood at 10. Besides, the “herbicidal effect index, Abutilon theophrasti” value is 9 in the assay on Indian millet [1] and 10 in the assay with Indian millet [4]. Further, the “herbicidal effect index, Amaranthus retroflexus” value in the assay with A. retroflexus [2] and in the assay with A. retroflexus [5] was 10 each time. Moreover, the entries for the “herbicidal effect index, Echinochloa crus-galli” value in the assay with Echinochloa crus-galli [3] and in the assay with Echinochloa crus-galli [6] were 8 and 9, respectively. Also, the “Herbicidal effects index number, Echinochloa oryzicola” value in the assay on Echinochloa oryzicola worked out at 10. For the same compound, the “herbicidal effect index, S. juncoides Rocxb.” value with Scirpus juncoides Rocxb. is reported as 10. For the same compound, in the assay on Monochoria vaginalis, the “Herbicidal effects index number, Monochoria vaginalis” value is on record as 10.
Regarding `Cc1ccc(-n2c(=O)c(C(=O)C3=C(O)C(C)(C)C(=O)C(C)(C)C3=O)nn(C)c2=O)c(C)c1` [VI-65], the “herbicidal effect index, Setaria viridis” value in the assay with foxtail and with Setaria viridis was 7 in each case. The “herbicidal effect index, Abutilon theophrasti” value with Indian millet [1] and in the assay on Indian millet [4] was 10 in each case. Further, the “herbicidal effect index, Amaranthus retroflexus” value in the assay with A. retroflexus [2] and with A. retroflexus [5] was 10 in each case. Also, the “herbicidal effect index, Echinochloa crus-galli” value with Echinochloa crus-galli [3] turned out to be 9. The “Herbicidal effects index number, Echinochloa oryzicola” value with Echinochloa oryzicola amounted to 10. Also, the “herbicidal effect index, S. juncoides Rocxb.” value in the assay on Scirpus juncoides Rocxb. amounted to 10. In the assay on Monochoria vaginalis, the “Herbicidal effects index number, Monochoria vaginalis” value was found to be 10.
